Patent US10959432B2, “Microbiocidal oxadiazole derivatives” (Syngenta Participations AG, priority 2016, dated 2021)

How the values were obtained:
[1] = system: Phakopsora pachyrhizi; test: Fungicidal activity against Phakopsora pachyrhizi / soybean / leaf disc preventative (Asian soybean rust); assay type: in vivo; details: foliar, 200 ppm in the applied formulation, soybean leaf disks, preventative (inoculated one day after application), assessed 12 to 14 days after application, read-out: disease control compared to untreated control leaf disks
How it was run: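 Soybean leaf discs on water agar sprayed with formulated compound diluted in water; spore suspension sprayed on lower leaf surface one day later. Incubated 24-36 h dark at 20° C, 75% rh, then 20° C, 12 h light/day, 75% rh. Percent disease control versus untreated scored 12 to 14 days after application.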

[2] = system: Glomerella laqenarium (Colletotrichum lagenarium); test: Fungicidal activity against Glomerella lagenarium (Colletotrichum lagenarium) liquid culture / cucumber / preventative (anthracnose); assay type: cell-based; details: Colletotrichum orbiculare; 20 ppm in the applied formulation; liquid culture in PDB, 24° C., 3 to 4 days after application; read-out: disease control compared to untreated control (inhibition of growth measured photometrically)
How it was run: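 Cryostored conidia mixed into potato dextrose broth and added to test compound (from DMSO solution) in microtiter plates. Incubated at 24 °C; growth inhibition read photometrically 3 to 4 days after application, as percent activity versus untreated check.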

[3] = system: Puccinia recondita f. sp. tritici; test: Fungicidal activity against Puccinia recondita f. sp. tritici / wheat / leaf disc preventative (brown rust); assay type: in vivo; details: foliar, 200 ppm in the applied formulation, wheat leaf segments cv. Kanzler, preventative (inoculated 1 day after application), assessed 7 to 9 days after application, read-out: disease control compared to untreated control leaf disks
How it was run: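 Wheat cv. Kanzler leaf segments on agar sprayed with formulated compound diluted in water, inoculated with P. recondita spores 1 day later. Incubated at 19C, 75% rh, 12 h light/12 h dark; scored 7 to 9 days after application as percent disease control versus untreated segments. Test rate 200 ppm.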

[4] = system: Puccinia recondita f. sp. tritici; test: Fungicidal activity against Puccinia recondita f. sp. tritici / wheat / leaf disc curative (brown rust); assay type: in vivo; details: foliar, 200 ppm in the applied formulation, wheat leaf segments cv. Kanzler, curative (applied 1 day after inoculation), assessed 6 to 8 days after application, read-out: disease control compared to untreated control leaf disks
How it was run: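 Wheat cv. Kanzler leaf segments on agar, spore-inoculated, held dark at 19° C./75% RH; formulated compound in water sprayed 1 day post-inoculation (curative). Incubated 19° C., 75% RH, 12 h light/12 h dark; percent disease control vs untreated scored 6 to 8 days after application.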

O=C(NCCCCCl)c1ccc(-c2noc(C(F)(F)F)n2)cc1F [Compound 3b.20, N-(4-chlorobutyl)-2-fluoro-4-[5-(trifluoromethyl)-1,2,4-oxadiazol-3-yl]benzamide]
≥ 80%: pest or weed control at 200 ppm [1] | inhibition at 20 ppm [2] | pest or weed control at 200 ppm [3] | pest or weed control at 200 ppm [4]

O=C(NCCO)c1ccc(-c2noc(C(F)(F)F)n2)cc1F [Compound 3b.21, 2-fluoro-N-(2-hydroxyethyl)-4-[5-(trifluoromethyl)-1,2,4-oxadiazol-3-yl]benzamide]
≥ 80%: pest or weed control at 200 ppm [1] | inhibition at 20 ppm [2] | pest or weed control at 200 ppm [3] | pest or weed control at 200 ppm [4]

O=C(NCCCCCO)c1ccc(-c2noc(C(F)(F)F)n2)cc1F [Compound 3b.22, 2-fluoro-N-(5-hydroxypentyl)-4-[5-(trifluoromethyl)-1,2,4-oxadiazol-3-yl]benzamide]
≥ 80%: pest or weed control at 200 ppm [1] | inhibition at 20 ppm [2] | pest or weed control at 200 ppm [3] | pest or weed control at 200 ppm [4]

CCOCCCNC(=O)c1ccc(-c2noc(C(F)(F)F)n2)cc1F [Compound 3b.24, N-(3-ethoxypropyl)-2-fluoro-4-[5-(trifluoromethyl)-1,2,4-oxadiazol-3-yl]benzamide]
≥ 80%: pest or weed control at 200 ppm [1] | inhibition at 20 ppm [2] | pest or weed control at 200 ppm [3] | pest or weed control at 200 ppm [4]

CC(C)NC(=O)c1ccc(-c2noc(C(F)(F)F)n2)cc1F [Compound 3b.27, 2-fluoro-N-isopropyl-4-[5-(trifluoromethyl)-1,2,4-oxadiazol-3-yl]benzamide]
≥ 80%: pest or weed control at 200 ppm [1] | inhibition at 20 ppm [2] | pest or weed control at 200 ppm [3] | pest or weed control at 200 ppm [4]

CC(C)(O)CNC(=O)c1ccc(-c2noc(C(F)(F)F)n2)cc1F [Compound 3b.29, 2-fluoro-N-(2-hydroxy-2-methyl-propyl)-4-[5-(trifluoromethyl)-1,2,4-oxadiazol-3-yl]benzamide]
≥ 80%: pest or weed control at 200 ppm [1] | inhibition at 20 ppm [2] | pest or weed control at 200 ppm [3] | pest or weed control at 200 ppm [4]

C=CCN(CC)C(=O)c1ccc(-c2noc(C(F)(F)F)n2)cc1F [Compound 3b.30, N-allyl-N-ethyl-2-fluoro-4-[5-(trifluoromethyl)-1,2,4-oxadiazol-3-yl]benzamide]
≥ 80%: pest or weed control at 200 ppm [1] | inhibition at 20 ppm [2] | pest or weed control at 200 ppm [3] | pest or weed control at 200 ppm [4]

CCN(CC)C(=O)c1ccc(-c2noc(C(F)(F)F)n2)cc1F [Compound 3b.32, N,N-diethyl-2-fluoro-4-[5-(trifluoromethyl)-1,2,4-oxadiazol-3-yl]benzamide]
≥ 80%: pest or weed control at 200 ppm [1] | inhibition at 20 ppm [2] | pest or weed control at 200 ppm [3] | pest or weed control at 200 ppm [4]

C=C(C)CN(CC)C(=O)c1ccc(-c2noc(C(F)(F)F)n2)cc1F [Compound 3b.33, N-ethyl-2-fluoro-N-(2-methylallyl)-4-[5-(trifluoromethyl)-1,2,4-oxadiazol-3-yl]benzamide]
≥ 80%: pest or weed control at 200 ppm [1] | inhibition at 20 ppm [2] | pest or weed control at 200 ppm [3] | pest or weed control at 200 ppm [4]

CCCN(C)C(=O)c1ccc(-c2noc(C(F)(F)F)n2)cc1F [Compound 3b.34, 2-fluoro-N-methyl-N-propyl-4-[5-(trifluoromethyl)-1,2,4-oxadiazol-3-yl]benzamide]
≥ 80%: pest or weed control at 200 ppm [1] | inhibition at 20 ppm [2] | pest or weed control at 200 ppm [3] | pest or weed control at 200 ppm [4]

CCN(C(=O)c1ccc(-c2noc(C(F)(F)F)n2)cc1F)C(C)C [Compound 3b.35, N-ethyl-2-fluoro-N-isopropyl-4-[5-(trifluoromethyl)-1,2,4-oxadiazol-3-yl]benzamide]
≥ 80%: pest or weed control at 200 ppm [1] | inhibition at 20 ppm [2] | pest or weed control at 200 ppm [3] | pest or weed control at 200 ppm [4]

CC(C)N(C)C(=O)c1ccc(-c2noc(C(F)(F)F)n2)cc1F [Compound 3b.36, 2-fluoro-N-isopropyl-N-methyl-4-[5-(trifluoromethyl)-1,2,4-oxadiazol-3-yl]benzamide]
≥ 80%: pest or weed control at 200 ppm [1] | inhibition at 20 ppm [2] | pest or weed control at 200 ppm [3] | pest or weed control at 200 ppm [4]

CN(C(=O)c1ccc(-c2noc(C(F)(F)F)n2)cc1F)C(C)(C)C [Compound 3b.37, N-tert-butyl-2-fluoro-N-methyl-4-[5-(trifluoromethyl)-1,2,4-oxadiazol-3-yl]benzamide]
≥ 80%: pest or weed control at 200 ppm [1] | inhibition at 20 ppm [2] | pest or weed control at 200 ppm [3] | pest or weed control at 200 ppm [4]

CCCCN(C)C(=O)c1ccc(-c2noc(C(F)(F)F)n2)cc1F [Compound 3b.38, N-butyl-2-fluoro-N-methyl-4-[5-(trifluoromethyl)-1,2,4-oxadiazol-3-yl]benzamide]
≥ 80%: pest or weed control at 200 ppm [1] | inhibition at 20 ppm [2] | pest or weed control at 200 ppm [3] | pest or weed control at 200 ppm [4]

CCOCCNC(=O)c1ccc(-c2noc(C(F)(F)F)n2)cc1F [Compound 3b.39, N-(2-ethoxyethyl)-2-fluoro-4-[5-(trifluoromethyl)-1,2,4-oxadiazol-3-yl]benzamide]
≥ 80%: pest or weed control at 200 ppm [1] | inhibition at 20 ppm [2] | pest or weed control at 200 ppm [3] | pest or weed control at 200 ppm [4]

COCC(C)NC(=O)c1ccc(-c2noc(C(F)(F)F)n2)cc1F (stereo not drawn) [Compound 3b.40, 2-fluoro-N-(2-methoxy-1-methyl-ethyl)-4-[5-(trifluoromethyl)-1,2,4-oxadiazol-3-yl]benzamide]
≥ 80%: pest or weed control at 200 ppm [1] | inhibition at 20 ppm [2] | pest or weed control at 200 ppm [3] | pest or weed control at 200 ppm [4]

CC(C)CCNC(=O)c1ccc(-c2noc(C(F)(F)F)n2)cc1F [Compound 3b.41, 2-fluoro-N-isopentyl-4-[5-(trifluoromethyl)-1,2,4-oxadiazol-3-yl]benzamide]
≥ 80%: pest or weed control at 200 ppm [1] | inhibition at 20 ppm [2] | pest or weed control at 200 ppm [3] | pest or weed control at 200 ppm [4]

CC(C)OCCNC(=O)c1ccc(-c2noc(C(F)(F)F)n2)cc1F [Compound 3b.43, 2-fluoro-N-(2-isopropoxyethyl)-4-[5-(trifluoromethyl)-1,2,4-oxadiazol-3-yl]benzamide]
≥ 80%: pest or weed control at 200 ppm [1] | inhibition at 20 ppm [2] | pest or weed control at 200 ppm [3] | pest or weed control at 200 ppm [4]

C#CCN(C)C(=O)c1ccc(-c2noc(C(F)(F)F)n2)cc1F [Compound 3b.44, 2-fluoro-N-methyl-N-prop-2-ynyl-4-[5-(trifluoromethyl)-1,2,4-oxadiazol-3-yl]benzamide]
≥ 80%: pest or weed control at 200 ppm [1] | inhibition at 20 ppm [2] | pest or weed control at 200 ppm [3] | pest or weed control at 200 ppm [4]

O=C(Nc1nc(Br)n[nH]1)c1ccc(-c2noc(C(F)(F)F)n2)cc1 [Compound 5a.6, N-(3-bromo-1H-1,2,4-triazol-5-yl)-4-[5-(trifluoromethyl)-1,2,4-oxadiazol-3-yl]benzamide]
≥ 80%: pest or weed control at 200 ppm [1] | inhibition at 20 ppm [2] | pest or weed control at 200 ppm [3] | pest or weed control at 200 ppm [4]

O=C(Nc1nccnn1)c1ccc(-c2noc(C(F)(F)F)n2)cc1 [Compound 5a.8, N-(1,2,4-triazin-3-yl)-4-[5-(trifluoromethyl)-1,2,4-oxadiazol-3-yl]benzamide]
≥ 80%: pest or weed control at 200 ppm [1] | inhibition at 20 ppm [2] | pest or weed control at 200 ppm [3] | pest or weed control at 200 ppm [4]
